For eleven compounds, DC50 and Dmax results are on record in patent US20260092071A1, “COMPOUNDS AND COMPOSITIONS AS SMARCA2/4 DEGRADERS AND USES THEREOF” (REGENTS OF THE UNIVERSITY OF MICHIGAN, priority 2022, published 2026).

Some results are limits rather than exact numbers.

One test addresses SMARCA4 (Homo sapiens, UniProt P51532). Description: HiBit assay in engineered HT1080 CRISPR knock-in cell, 6 hrs (B series), SMARCA4. In kind it is cell-based. The settings on record: 6 hrs incubation; for DC50: HT1080 CRISPR knock-in cells, read-out: SMARC A4 HT1080 HiBit DC50; for Dmax: HT-1080, HT1080 CRISPR knock-in cells, read-out: SMARC A4 HT1080 HiBit Dmax(%). The method, boiled down:
(§1)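 Protein abundance is measured in HiBiT-tagged HT1080 CRISPR knock-in cells after a 6 hr compound treatment (0.1% DMSO) by lytic Nano-Glo HiBiT luminescence.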
A general note: With HiBiT, luminescence reflects the tagged protein that the partner subunit can reach.

The target of another test is SMARCA2 (Homo sapiens, UniProt P51531). Description: HiBit assay in engineered HT1080 CRISPR knock-in cell, 6 hrs (B series), SMARCA2. It counts as cell-based. The settings on record: 6 hrs incubation; for DC50: HT1080 CRISPR knock-in cells, read-out: SMARC A2 HT1080 HiBit DC50; for Dmax: HT-1080, HT1080 CRISPR knock-in cells, read-out: SMARC A2 HT1080 HiBit Dmax (%). The method in brief:
as §1

Chain of SMARCA4 (P51532 whole entry): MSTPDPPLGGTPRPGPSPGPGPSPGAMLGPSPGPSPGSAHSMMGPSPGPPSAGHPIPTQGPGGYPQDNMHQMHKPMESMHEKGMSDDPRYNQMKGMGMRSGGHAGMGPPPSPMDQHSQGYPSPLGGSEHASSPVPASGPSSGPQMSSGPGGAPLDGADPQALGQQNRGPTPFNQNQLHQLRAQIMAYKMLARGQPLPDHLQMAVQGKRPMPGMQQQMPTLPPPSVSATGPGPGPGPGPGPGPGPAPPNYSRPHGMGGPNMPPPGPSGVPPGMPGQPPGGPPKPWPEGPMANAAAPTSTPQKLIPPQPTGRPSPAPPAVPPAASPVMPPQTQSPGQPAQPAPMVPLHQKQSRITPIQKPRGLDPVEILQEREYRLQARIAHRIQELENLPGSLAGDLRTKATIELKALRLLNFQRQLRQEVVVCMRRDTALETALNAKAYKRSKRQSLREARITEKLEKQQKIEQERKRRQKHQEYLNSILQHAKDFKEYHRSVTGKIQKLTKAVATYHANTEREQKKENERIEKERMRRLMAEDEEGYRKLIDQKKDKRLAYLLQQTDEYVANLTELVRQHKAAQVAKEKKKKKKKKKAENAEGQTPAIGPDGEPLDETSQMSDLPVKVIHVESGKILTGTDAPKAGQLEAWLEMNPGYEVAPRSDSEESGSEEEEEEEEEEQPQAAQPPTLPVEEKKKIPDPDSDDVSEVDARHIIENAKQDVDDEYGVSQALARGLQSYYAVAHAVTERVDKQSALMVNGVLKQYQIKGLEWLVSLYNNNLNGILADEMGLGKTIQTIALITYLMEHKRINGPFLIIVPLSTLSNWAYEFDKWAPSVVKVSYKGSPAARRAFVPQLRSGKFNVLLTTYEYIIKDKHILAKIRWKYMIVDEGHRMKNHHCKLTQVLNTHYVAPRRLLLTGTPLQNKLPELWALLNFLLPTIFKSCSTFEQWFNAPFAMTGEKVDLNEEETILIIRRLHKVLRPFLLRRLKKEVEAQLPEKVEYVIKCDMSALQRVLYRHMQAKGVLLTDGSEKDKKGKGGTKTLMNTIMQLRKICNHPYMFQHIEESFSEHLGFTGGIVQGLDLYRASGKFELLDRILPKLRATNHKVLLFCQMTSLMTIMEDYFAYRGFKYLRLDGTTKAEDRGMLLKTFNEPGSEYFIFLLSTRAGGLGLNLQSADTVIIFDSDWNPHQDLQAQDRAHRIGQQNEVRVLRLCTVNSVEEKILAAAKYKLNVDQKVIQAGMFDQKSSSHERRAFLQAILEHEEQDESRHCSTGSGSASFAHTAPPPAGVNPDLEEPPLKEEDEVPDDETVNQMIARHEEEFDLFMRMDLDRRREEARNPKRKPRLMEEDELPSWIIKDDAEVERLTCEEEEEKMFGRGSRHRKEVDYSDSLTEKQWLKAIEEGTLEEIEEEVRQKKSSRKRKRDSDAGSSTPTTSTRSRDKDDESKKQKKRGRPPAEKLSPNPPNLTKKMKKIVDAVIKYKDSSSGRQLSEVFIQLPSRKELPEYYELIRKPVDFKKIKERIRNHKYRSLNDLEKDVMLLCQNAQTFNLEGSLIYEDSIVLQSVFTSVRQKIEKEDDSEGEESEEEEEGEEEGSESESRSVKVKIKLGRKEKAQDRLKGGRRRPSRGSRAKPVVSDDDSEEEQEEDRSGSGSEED
Chain of SMARCA2 (P51531 whole entry): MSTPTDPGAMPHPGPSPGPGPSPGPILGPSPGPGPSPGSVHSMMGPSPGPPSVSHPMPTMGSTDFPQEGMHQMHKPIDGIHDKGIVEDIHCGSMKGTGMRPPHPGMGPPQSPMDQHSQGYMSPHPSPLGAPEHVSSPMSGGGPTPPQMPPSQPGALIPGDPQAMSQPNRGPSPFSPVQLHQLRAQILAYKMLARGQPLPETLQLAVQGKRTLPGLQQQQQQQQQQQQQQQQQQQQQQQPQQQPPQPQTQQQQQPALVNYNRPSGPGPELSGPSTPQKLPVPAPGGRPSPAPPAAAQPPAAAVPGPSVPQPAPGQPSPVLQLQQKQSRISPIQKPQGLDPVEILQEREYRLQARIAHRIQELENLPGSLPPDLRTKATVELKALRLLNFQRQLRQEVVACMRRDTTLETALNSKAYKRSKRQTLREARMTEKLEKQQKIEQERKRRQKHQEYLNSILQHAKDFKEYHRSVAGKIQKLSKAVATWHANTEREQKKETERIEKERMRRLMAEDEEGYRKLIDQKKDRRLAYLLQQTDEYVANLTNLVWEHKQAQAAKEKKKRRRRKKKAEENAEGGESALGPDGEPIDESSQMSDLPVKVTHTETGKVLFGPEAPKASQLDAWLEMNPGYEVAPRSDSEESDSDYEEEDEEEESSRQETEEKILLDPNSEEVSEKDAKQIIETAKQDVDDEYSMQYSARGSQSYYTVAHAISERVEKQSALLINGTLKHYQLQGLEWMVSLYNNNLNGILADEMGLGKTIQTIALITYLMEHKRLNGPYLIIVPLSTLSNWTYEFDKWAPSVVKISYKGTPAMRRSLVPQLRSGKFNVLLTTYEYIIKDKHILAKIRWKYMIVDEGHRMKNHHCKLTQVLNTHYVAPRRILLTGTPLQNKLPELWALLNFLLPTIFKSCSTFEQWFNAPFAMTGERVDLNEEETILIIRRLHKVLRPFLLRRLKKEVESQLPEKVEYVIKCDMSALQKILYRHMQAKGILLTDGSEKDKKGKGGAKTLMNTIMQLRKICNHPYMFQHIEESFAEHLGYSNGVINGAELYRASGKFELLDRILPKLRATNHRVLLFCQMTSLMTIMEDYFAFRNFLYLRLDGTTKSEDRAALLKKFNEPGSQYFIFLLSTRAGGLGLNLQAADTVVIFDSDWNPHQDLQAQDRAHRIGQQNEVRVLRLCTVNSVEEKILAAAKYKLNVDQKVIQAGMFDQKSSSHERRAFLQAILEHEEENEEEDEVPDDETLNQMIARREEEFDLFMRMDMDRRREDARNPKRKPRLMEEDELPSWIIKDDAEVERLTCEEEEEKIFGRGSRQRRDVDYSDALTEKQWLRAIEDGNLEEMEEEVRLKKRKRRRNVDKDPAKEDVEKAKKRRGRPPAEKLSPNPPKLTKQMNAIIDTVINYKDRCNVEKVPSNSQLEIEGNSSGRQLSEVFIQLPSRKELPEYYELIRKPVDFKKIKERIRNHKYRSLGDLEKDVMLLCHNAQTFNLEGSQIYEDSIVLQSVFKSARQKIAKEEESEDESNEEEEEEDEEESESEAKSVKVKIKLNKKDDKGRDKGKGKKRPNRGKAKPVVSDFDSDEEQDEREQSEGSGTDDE

With `Cc1ncsc1-c1ccc(C2(NC(=O)[C@@H]3C[C@@H](O)CN3C(=O)[C@@H](n3cc([C@H]4CC[C@H](CN5CCC(c6ccc7c(c6)-n6c(nc(=O)c8c(Cl)cccc86)C7(C)C)CC5)CC4)nn3)C(C)(C)C)CNC2)cc1` [Compound B113, (2S,4R)-1-((S)-2-(4-((1r,4S)-4-((4-(4-chloro-7,7-dimethyl-5-oxo-5,7-dihydroindolo[1,2-a]quinazolin-10-yl)piperidin-1-yl)methyl)cyclohexyl)-1H-1,2,3-triazol-1-yl)-3,3-dimethylbutanoyl)-4-hydroxy-N-(3-(4-(4-methylthiazol-5-yl)phenyl)azetidin-3-yl)pyrrolidine-2-carboxamide], at SMARCA4, the DC50 fell in the range of 501 to 1000 nM and the Dmax is below 50%. Further, on SMARCA2, the DC50 was in the range of 100 to 500 nM and the Dmax was above 90%.

Regarding `Cc1ncsc1-c1ccc([C@H](C)NC(=O)[C@@H]2C[C@@H](O)CN2C(=O)[C@H](C(C)C)n2cc(C3CCC(N4CCC(c5cccc6c5C(C)(C)c5nc(=O)c7c(Cl)cccc7n5-6)CC4)CC3)nn2)cc1` (stereo partly drawn) [Compound B114, (2S,4R)-1-((S)-2-(4-(4-(4-(4-chloro-7,7-dimethyl-5-oxo-5,7-dihydroindolo[1,2-a]quinazolin-8-yl)piperidin-1-yl)cyclohexyl)-1H-1,2,3-triazol-1-yl)-3-methylbutanoyl)-4-hydroxy-N-((S)-1-(4-(4-methylthiazol-5-yl)phenyl)ethyl)pyrrolidine-2-carboxamide], on SMARCA4, the DC50 lay in the range of 100 to 500 nM and the Dmax is below 50%. Moreover, on SMARCA2, the DC50 is below 100 nM and the Dmax lay within 70 to 90%.

Consider `Cc1ncsc1-c1ccc([C@H](CN2CCOCC2)NC(=O)[C@@H]2C[C@@H](O)CN2C(=O)C(c2cc(N3CCC(CN4CCC(c5ccc6c(c5)-n5c(nc(=O)c7c(Cl)cccc75)C6(C)C)CC4)CC3)no2)C(C)C)cc1` (stereo partly drawn) [Compound B115, (2S,4R)-1-(2-(3-(4-((4-(4-chloro-7,7-dimethyl-5-oxo-5,7-dihydroindolo[1,2-a]quinazolin-10-yl)piperidin-1-yl)methyl)piperidin-1-yl)isoxazol-5-yl)-3-methylbutanoyl)-4-hydroxy-N-((R)-1-(4-(4-methylthiazol-5-yl)phenyl)-2-morpholinoethyl)pyrrolidine-2-carboxamide], for which the DC50 at SMARCA4 and on SMARCA2 was below 100 nM throughout. Besides, the values for the Dmax at SMARCA4 and on SMARCA2 were 70 to 90% and above 90%, respectively.

With `Cc1ncsc1-c1ccc([C@H](C)NC(=O)[C@@H]2C[C@@H](O)CN2C(=O)[C@@H](c2cc(OCCc3cccc4c3C(C)(C)c3nc(=O)c5c(Cl)cccc5n3-4)no2)C(C)C)cc1` [Compound B116, (2S,4R)-1-((R)-2-(3-(2-(4-chloro-7,7-dimethyl-5-oxo-5,7-dihydroindolo[1,2-a]quinazolin-8-yl)ethoxy)isoxazol-5-yl)-3-methylbutanoyl)-4-hydroxy-N—((S)-1-(4-(4-methylthiazol-5-yl)phenyl)ethyl)pyrrolidine-2-carboxamide], at SMARCA4, the DC50 is above 1000 nM and the Dmax is below 50%. For the same compound, at SMARCA2, the DC50 was below 100 nM and the Dmax lay in the range of 70 to 90%.

As to `C[C@H](NC(=O)[C@@H]1C[C@@H](O)CN1C(=O)[C@@H](n1cc([C@H]2CC[C@H](CN3CCC(c4ccc5c(c4)-n4c(nc(=O)c6c(Cl)cccc64)C5(C)C)CC3)CC2)nn1)C(C)(C)C)c1ccc(-c2scnc2Cl)cc1` [Compound B117, (2S,4R)-1-((S)-2-(4-((1r,4S)-4-((4-(4-chloro-7,7-dimethyl-5-oxo-5,7-dihydroindolo[1,2-a]quinazolin-10-yl)piperidin-1-yl)methyl)cyclohexyl)-1H-1,2,3-triazol-1-yl)-3,3-dimethylbutanoyl)-N-((S)-1-(4-(4-chlorothiazol-5-yl)phenyl)ethyl)-4-hydroxypyrrolidine-2-carboxamide], the DC50 at SMARCA4 is 100 to 500 nM; on SMARCA2, below 100 nM. The results for the Dmax on SMARCA4 and on SMARCA2 were 50 to 69% and above 90%, respectively.

For the compound `Cc1ncsc1-c1ccc([C@H](CN2CCOCC2)NC(=O)[C@@H]2C[C@@H](O)CN2C(=O)[C@@H](n2cc([C@H]3CC[C@H](S(=O)(=O)N4CCC(c5ccc6c(c5)-n5c(nc(=O)c7c(Cl)cccc75)C65CCCCC5)CC4)CC3)nn2)C(C)(C)C)cc1` [Compound B118, (2S,4R)-1-((S)-2-(4-((1r,4S)-4-((4-(4′-chloro-5′-oxo-5′H-spiro[cyclohexane-1,7′-indolo[1,2-a]quinazolin]-10′-yl)piperidin-1-yl)sulfonyl)cyclohexyl)-1H-1,2,3-triazol-1-yl)-3,3-dimethylbutanoyl)-4-hydroxy-N-((R)-1-(4-(4-methylthiazol-5-yl)phenyl)-2-morpholinoethyl)pyrrolidine-2-carboxamide], the results for the DC50 on SMARCA4 and at SMARCA2 were 501 to 1000 nM and below 100 nM, respectively. In addition, the results for the Dmax at SMARCA4 and at SMARCA2 were 50 to 69% and 70 to 90%, respectively.

Take `Cc1ncsc1-c1ccc([C@H](C)NC(=O)[C@@H]2C[C@@H](O)CN2C(=O)[C@@H](n2cc(-c3cccc(CN4CCC(c5ccc6c(c5)-n5c(nc(=O)c7c(Cl)cccc75)C6(C)C)CC4)c3)nn2)C(C)(C)C)cc1` [Compound B119, (2S,4R)-1-((S)-2-(4-(3-((4-(4-chloro-7,7-dimethyl-5-oxo-5,7-dihydroindolo[1,2-a]quinazolin-10-yl)piperidin-1-yl)methyl)phenyl)-1H-1,2,3-triazol-1-yl)-3,3-dimethylbutanoyl)-4-hydroxy-N-((S)-1-(4-(4-methylthiazol-5-yl)phenyl)ethyl)pyrrolidine-2-carboxamide]: at SMARCA4, the DC50 was below 100 nM and the Dmax is above 90%. In addition, at SMARCA2, the DC50 was below 100 nM and the Dmax was above 90%.

As for `Cc1ncsc1-c1ccc([C@H](C)NC(=O)[C@@H]2C[C@@H](O)CN2C(=O)[C@H](C(C)C)n2cc([C@H]3CC[C@H](CN4CCN(c5ccc6c(c5)-n5c(nc(=O)c7c(Cl)cccc75)C6(C)C)CC4)CC3)nn2)cc1` [Compound B120, (2S,4R)-1-((S)-2-(4-((1r,4S)-4-((4-(4-chloro-7,7-dimethyl-5-oxo-5,7-dihydroindolo[1,2-a]quinazolin-10-yl)piperazin-1-yl)methyl)cyclohexyl)-1H-1,2,3-triazol-1-yl)-3-methylbutanoyl)-4-hydroxy-N-((S)-1-(4-(4-methylthiazol-5-yl)phenyl)ethyl)pyrrolidine-2-carboxamide], at SMARCA4, the DC50 is below 100 nM and the Dmax fell in the range of 70 to 90%. At SMARCA2, the DC50 is below 100 nM and the Dmax was above 90%.

On to `Cc1ncsc1-c1ccc([C@H](C)NC(=O)[C@@H]2C[C@@H](O)CN2C(=O)[C@@H](n2cc([C@H]3CC[C@H](CN4CCN(c5ccc6c(c5)-n5c(nc(=O)c7c(Cl)cccc75)C6(C)C)CC4)CC3)nn2)C(C)(C)C)cc1` [Compound B121, (2S,4R)-1-((S)-2-(4-((1r,4S)-4-((4-(4-chloro-7,7-dimethyl-5-oxo-5,7-dihydroindolo[1,2-a]quinazolin-10-yl)piperazin-1-yl)methyl)cyclohexyl)-1H-1,2,3-triazol-1-yl)-3,3-dimethylbutanoyl)-4-hydroxy-N-((S)-1-(4-(4-methylthiazol-5-yl)phenyl)ethyl)pyrrolidine-2-carboxamide], for which, on SMARCA4, the DC50 is below 100 nM and the Dmax lay within 70 to 90%. On SMARCA2, the DC50 was below 100 nM and the Dmax is above 90%.

For the compound `Cc1ncsc1-c1ccc2c(c1)CC[C@H]2NC(=O)[C@@H]1C[C@@H](O)CN1C(=O)[C@@H](n1cc([C@H]2CC[C@H](CN3CCC(c4ccc5c(c4)-n4c(nc(=O)c6c(Cl)cccc64)C5(C)C)CC3)CC2)nn1)C(C)(C)C` [Compound B122, (2S,4R)-1-((S)-2-(4-((1r,4S)-4-((4-(4-chloro-7,7-dimethyl-5-oxo-5,7-dihydroindolo[1,2-a]quinazolin-10-yl)piperidin-1-yl)methyl)cyclohexyl)-1H-1,2,3-triazol-1-yl)-3,3-dimethylbutanoyl)-4-hydroxy-N-((R)-5-(4-methylthiazol-5-yl)-2,3-dihydro-1H-inden-1-yl)pyrrolidine-2-carboxamide], on SMARCA4, the DC50 fell in the range of 100 to 500 nM and the Dmax is below 50%. On SMARCA2, the DC50 lay within 100 to 500 nM and the Dmax lay within 70 to 90%.

For `Cc1ncsc1-c1ccc2c(c1)CC[C@@H]2NC(=O)[C@@H]1C[C@@H](O)CN1C(=O)[C@@H](n1cc([C@H]2CC[C@H](CN3CCC(c4ccc5c(c4)-n4c(nc(=O)c6c(Cl)cccc64)C5(C)C)CC3)CC2)nn1)C(C)(C)C` [Compound B123, (2S,4R)-1-((S)-2-(4-((1r,4S)-4-((4-(4-chloro-7,7-dimethyl-5-oxo-5,7-dihydroindolo[1,2-a]quinazolin-10-yl)piperidin-1-yl)methyl)cyclohexyl)-1H-1,2,3-triazol-1-yl)-3,3-dimethylbutanoyl)-4-hydroxy-N-((S)-5-(4-methylthiazol-5-yl)-2,3-dihydro-1H-inden-1-yl)pyrrolidine-2-carboxamide], the DC50 at SMARCA4 is 100 to 500 nM; on SMARCA2, below 100 nM. In addition, the Dmax was below 50% on SMARCA4 and 70 to 90% at SMARCA2.
